Measurements reported in patent US20080260770A1, “Use of Tellurium Compounds as Adjuvants” (BIOMAS LTD., priority 2004, published 2008).
Strand notation (5' to 3'): a small letter for the sugar, then the base; units joined by * are phosphorothioate-linked, units joined directly phosphodiester-linked; [ ] holds rarer units or linkages, { } end groups; capitals alone tell only the bases. d = 2'-deoxy (DNA)

Tests used:
rats = conditions: intravenous and intramuscular administration; cited from earlier work
[1] = system: Murine bone marrow-derived dendritic cells; test: IL-12 p40 production by murine bone marrow-derived dendritic cells (ELISA); type: cell-based, mice; conditions: DC 10^6 cells/ml, 0.5-10 μg/ml PBS, supernatants after 24 hours, FIG. 2
Procedure: Murine bone marrow-derived dendritic cells (DC) were prepared by culturing bone marrow cells from the femur and tibia of mice in RPMI medium supplemented with 10% supernatant from a granulocyte-monocyte colony-stimulating factor-secreting cell line.
On day 7 of culture, cells were collected, washed, and resuspended in RPMI medium. DC (10^6 cells/ml) were cultured with AS101 or AS103 (0.5-10 μg/ml PBS), or with CpG. Supernatants were collected after 24 hours for analysis of IL-12 p40 production. Cell supernatants were determined using commercially available ELISA kits (R&D Systems).

[2] = system: KLH-specific IgG1 and IgG2a; test: Serum antibody responses to KLH in immunized mice (ELISA titers); type: in vivo
Procedure: Serum was obtained from mice immunized with depyrogenated keyhole limpet hemocyanin (KLH) (5 μg; Calbiochem, La Jolla, Calif.); with KLH plusphosphorothioate-stabilized oligodeoxynucleotide-containing CpG motifs (CpG-ODN) (5′-GCTAGACGTTAGCGT-3′), synthesized by Sigma-Genosys Ltd., Cambridge, United Kingdom; with KLH, plus CpG, plus AS101 (10 μg/ml PBS); or with Dulbecco's PBS alone (Sigma, Poole, United Kingdom), each in a final volume of 50 μl PBS.
On day 7 after immunization, mice were sacrificed by cervical dislocation, and serum and popliteal lymph nodes were collected. Titers of KLH-specific IgG1 and IgG2a in the serum of the immunized mice were determined by ELISA, and analysed for the presence of antibody subclasses IgG1 and IgG2a.

[3] = system: freshly isolated peripheral blood human monocytes; test: IL-12 p40 production by human monocytes (ELISA); type: cell-based; conditions: adherent PBMCs from a healthy donor, 0.5-2 μg/ml PBS, 24 hours incubation, FIG. 1
Procedure: Adherent Peripheral Blood Mononuclear Cells (PBMCs) from a tuberculin-negative healthy donor were incubated with AS101 or AS103 (0.5-2 μg/ml PBS) or E. coli lipopolysaccharide (LPS) (1 ng/ml PBS; Sigma) for 24 hours. Supernatants were collected after 28 hours for analysis of IL-12 production. Cell supernatants were determined using commercially available Enzyme-Linked Immunosorbent Assay (ELISA) kits (R&D Systems). Supernatants were tested for IL-12p40 by ELISA kit (Endogene).

Compound	LD50 values relative to the immunologically effective dose (rats)	IL-12 p40 production [1]	KLH-specific IgG1 response to KLH plus CpG on addition of the compound ([2]; 10 μg/ml PBS added to KLH plus CpG, day 7 after immunization, FIG. 3a)	production of KLH-specific IgG2a in response to KLH plus CpG on addition of the compound ([2]; 10 μg/ml PBS added to KLH plus CpG, day 7 after immunization, FIG. 3b)	IL-12 p40 production [3]	KLH-specific antibody titer (IgG1 and IgG2a) on use together with KLH ([2]; KLH 5 μg plus CpG versus KLH alone, day 7, FIGS. 3a and 3b)
Cl[TeH]1(Cl)(Cl)OCCO1 [AS101, ammonium trichloro(dioxyethylene-O,O′)tellurate]	500-1000 folds	potent inducer	no further increase	significantly increased	potent inducer	
Cl[Te]1(Cl)OCCO1 [AS 103]					very low response	
CpG: phosphorothioate-stabilized oligodeoxynucleotide-containing CpG motifs (CpG-ODN) (5′-GCTAGACGTTAGCGT-3′), synthesized by Sigma-Genosys (DNA dG*dC*dT*dA*dG*dA*dC*dG*dT*dT*dA*dG*dC*dG*dT) [reference compound]						increased
